Measured values from US10034886B2, “GLP-1 receptor modulators” (Celgene International II SÀRL, priority 2014, dated 2018).

target: T1, GLP-1R (Homo sapiens, UniProt P43220); experiment: EC20 GLP-1(9-36) PAM cAMP assay: dose response of compound in the presence of fixed concentration of GLP-1(9-36); type: cell-based; settings: GLP-1R CRE-bla CHO-K1 cells, compound dose response with fixed concentration of GLP-1(9-36), read-out: EC20 GLP-1(9-36) PAM EC50
T1 construct: host or cells: GLP-1R CRE-bla CHO-K1 cells
Method in brief: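 GLP-1R CRE-bla CHO-K1 cells treated 30 min at 37 °C with 12-point compound dose response plus fixed EC20 GLP-1(9-36), with IBMX, in HBSS/HEPES/0.1% BSA pH 7.4. Total cAMP measured by luminescent detection against standard curve; EC50 and Emax from non-linear regression.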

T1 sequence (P43220 24-463): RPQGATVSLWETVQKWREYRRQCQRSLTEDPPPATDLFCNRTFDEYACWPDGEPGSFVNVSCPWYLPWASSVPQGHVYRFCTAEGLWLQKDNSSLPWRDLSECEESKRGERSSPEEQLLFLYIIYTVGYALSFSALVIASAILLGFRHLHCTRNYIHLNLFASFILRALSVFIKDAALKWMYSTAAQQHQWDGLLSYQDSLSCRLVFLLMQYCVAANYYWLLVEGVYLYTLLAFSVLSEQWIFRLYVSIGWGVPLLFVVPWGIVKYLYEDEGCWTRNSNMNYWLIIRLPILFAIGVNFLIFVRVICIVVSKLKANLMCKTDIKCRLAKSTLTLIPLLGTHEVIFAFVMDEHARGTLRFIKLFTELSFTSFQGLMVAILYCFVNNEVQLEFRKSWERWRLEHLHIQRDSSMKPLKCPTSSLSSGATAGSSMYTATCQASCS
T1 sequence (P01275 100-127 partner limits assumed): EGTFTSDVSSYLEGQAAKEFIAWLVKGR

EC50 [nM]	Structure (SMILES)
800 to 2500	C[C@@H](NC(=O)[C@H](Cc1ccc(-c2ncc(-c3cccc(N4CCCCC4)c3)cn2)cc1)NC(=O)c1ccc(C(C)(C)C)s1)C(=O)O [Compound 1284]
< 800	CCCc1ccc(-c2ccc(-c3cnc(-c4ccc(C[C@H](NC(=O)c5ccc(OC(C)(C)C)cc5)C(=O)N5CC(C(=O)O)C5)cc4)nc3)c(F)c2)cc1 [Compound 1403]
< 800	CCC[C@H]1CC[C@H](C2CCN(c3cnc(-c4ccc(C[C@H](NC(=O)c5ccc(C(C)(C)C)s5)C(=O)N[C@H](CCC(N)=O)C(=O)O)cc4)nc3)CC2)CC1 [Compound 1445]
800 to 2500	CC(C)CCCOc1ccc(-c2cnc(-c3ccc(C[C@H](NC(=O)c4ccc(C5CC5)cc4)C(=O)N4CC(C(=O)O)C4)cc3)nc2)cc1 [Compound 1233]
< 800	CCC[C@H]1CC[C@H](C2CCN(c3cnc(-c4ccc(C[C@H](NC(=O)c5ccc(C(C)(C)C)s5)C(=O)NC5(C(=O)O)CCCC5)cc4)nc3)CC2)CC1 [Compound 1470]
800 to 2500	CN(C)c1ccc(C2CCN(c3cnc(-c4ccc(CC(NC(=O)c5ccc(C(C)(C)C)s5)C(=O)N5CC(C(=O)O)C5)cc4)nc3)CC2)cc1 (stereo not drawn) [Compound 1486]
< 800	CC(C)(C)c1ccc(C(=O)N[C@@H](Cc2ccc(-c3ncc(-c4ccc(-c5ccc(OC(F)(F)F)cc5F)cc4F)cn3)cc2)C(=O)N2CC(C(=O)O)C2)s1 [Compound 1203]

same assay, conditions: dose response of compound in presence of fixed concentration of GLP-1(9-36), GLP-1R CRE-bla CHO-K1 cells, read-out: EC20 GLP-1(9-36) PAM EC50

EC50 [nM]	Structure (SMILES)
800 to 2500	CCCCCCCOc1ccc(-c2cnc(-c3ccc(C[C@H](NC(=O)c4ccc(CC)s4)C(=O)N4CC(C(=O)O)C4)cc3)nc2)cc1 [Compound 1110]
800 to 2500	C[C@@H](NC(=O)[C@H](Cc1ccc(-c2ncc(-c3cc(OCc4ccccc4)ncc3F)cn2)cc1)NC(=O)c1ccc(C(C)(C)C)s1)C(=O)O [Compound 1041]
< 800	C[C@@H](NC(=O)[C@H](Cc1ccc(-c2ncc(-c3ccc([C@H]4CC[C@H](C(C)(C)C)CC4)cc3)cn2)cc1)NC(=O)c1ccc(C(C)(C)C)s1)C(=O)O [Compound 1143]
800 to 2500	C[C@@H](NC(=O)[C@H](Cc1ccc(-c2ncc(-c3cccc(C(=O)Nc4cccc(F)c4)c3)cn2)cc1)NC(=O)c1ccc(C(C)(C)C)s1)C(=O)O [Compound 1032]
800 to 2500	CCCCCCCOc1ccc(-c2cnc(-c3ccc(C[C@H](NC(=O)c4ccc(CCC)cc4)C(=O)N4CC(C(=O)O)C4)cc3)nc2)cc1 [Compound 1112]

Second part, the molecule before the results:

Structure (SMILES)	EC50 [nM]
CCCCCCCOc1ccc(-c2cnc(-c3ccc(C[C@H](NC(=O)c4ccc(C(C)(C)C)s4)C(=O)N[C@@H](C(=O)O)C(C)c4ccccc4)cc3)nc2)cc1 (stereo partly drawn) [Compound 898]	2500 to 5000
CCCCCCc1noc(-c2cnc(-c3ccc(C[C@H](NC(=O)c4ccc(C(C)(C)C)cc4)C(=O)NCCC(=O)O)cc3)nc2)n1 [Compound 692]	5000 to 10000
CCCCCCCOc1ccc(-c2cnc(-c3ccc(C[C@H](NC(=O)c4ccc(C(C)(C)C)s4)C(=O)N[C@@H](CC(=O)NC)C(=O)O)cc3)nc2)cc1 [Compound 512]	< 800
CCCCCCCOc1ccc(-c2cnc(-c3ccc(C[C@H](NC(=O)c4ccc(C(C)(C)C)s4)C(=O)N[C@@H](CCCN)C(=O)O)cc3)nc2)cc1 [Compound 393]	800 to 2500
CCCCCCCOc1ccc(-c2cnc(-c3ccc(C[C@H](NC(=O)c4ccc(C(C)(C)C)cc4)C(=O)NC(CC)C(=O)O)cc3)nc2)cc1 (stereo partly drawn) [Compound 548]	< 800
CCCCOc1c(OC)ccc(-c2cnc(-c3ccc(C[C@H](NC(=O)c4ccc(C(C)(C)C)s4)C(=O)N[C@H](C)C(=O)O)cc3)nc2)c1F [Compound 1022]	2500 to 5000
CCCCCCCOc1ccc(-c2cnc(-c3ccc(C[C@H](NC(=O)c4ccc(CC)s4)C(=O)N[C@H](C)C(=O)O)cc3)nc2)cc1 [Compound 839]	800 to 2500
CC(C)COc1ccc(-c2cnc(-c3ccc(C[C@H](NC(=O)c4ccc(C(C)(C)C)s4)C(=O)N4CC(C(=O)O)C4)cc3)nc2)cc1 [Compound 789]	2500 to 5000
CCCCCCCOc1ccc(-c2cnc(-c3ccc(C(NC(=O)c4ccc(C(C)(C)C)cc4)C(=O)O)cc3)nc2)cc1 (stereo not drawn) [Compound 670]	2500 to 5000
